Assays:
[1] = system: microvessels invested by human SMC's; assay: Human-mouse chimeric angiogenesis in vivo (matrigel implants); parameters: species or system SCID mice; conditions: matrigel implants with PBEF-overexpressing SMC's, 8 days; p<0.05 vs vector
Experimental: Human-Mouse Chimeric Angiogenesis in vivo was measured. HITC6 SMCs in M199 with 10% FBS and fibroblast growth factor-2 (FGF-2) were mixed with an equal volume of growth factor-reduced matrigel (BD Discovery Labware) yielding final concentrations of 5×10^5 cells/ml and 250 ng/ml FGF-2. The cell-matrigel suspension (500 μl) was subcutaneously injected into the abdomen of mice with severe combined immunodeficiency syndrome (SCID). After 8 days, implants were harvested, fixed for 8 h in Tris-buffered zinc (32), and paraffin-embedded tissues were sectioned at 5 μm. […] Tissue was then incubated with rabbit anti-GFP (1:200, BD Clontech, Palo Alto, Calif.) and bound primary antibody detected with alkaline phosphatase-conjugated goat anti-rabbit secondary antibody and visualized with red alkaline phosphatase substrate (Vector). […]
Human-Mouse Chimeric Angiogenesis in vivo was measured. […] Tissue was then incubated with rabbit anti-GFP (1:200, BD Clontech, Palo Alto, Calif.) and bound primary antibody detected with alkaline phosphatase-conjugated goat anti-rabbit secondary antibody and visualized with red alkaline phosphatase substrate (Vector). […]

[2] = system: primary human vascular SMCs; assay: Replicative lifespan (cumulative population doublings) of primary SMCs; type: cell-based; conditions: primary adult SMCs overexpressing Nampt
HITC6 SMCs = assay: Replicative lifespan (cumulative population doublings) of HITC6 SMCs; type: cell-based, human
Experimental: To quantify replication, cells were plated at 4500 cells/cm^2 and growth medium with 10% FBS was changed every two days until cells reached 90-95% confluence. Harvested cells were counted from triplicate plates and the number of population doublings was calculated based on: [log10(number of cells harvested)−log10(number of cells seeded)]/[…] (Fukuhara, 2005). Population growth curves were compared using both nonlinear regression and two-way analysis of variance.
Cell Culture. Experiments were performed using primary human SMCs and the HITC6 clonal SMC line, both derived from segments of human internal thoracic artery (Li et al., 1999; Li et al., 2001). SMCs were maintained at 37° C. with 5% CO2 and cultured in Medium 199 (Invitrogen, Carlsbad, Calif., USA) supplemented with 25 mM HEPES, 10% FBS, 1% penicillin/streptomycin, and 1% L-glutamine. Phoenix cells (distributed by ATCC, Manassas, Va., USA) were maintained at 37° C. with 5% CO2 and cultured in Dulbecco's modified Eagle's medium (Invitrogen, Carlsbad, Calif., USA). To quantify replication, cells were seeded at a density of 4500 cells/cm2 and population doublings were calculated using the following formula: […].

SIRT1 = assay: Western blot of SIRT1 protein expression in SMCs; type: cell-based, human; conditions: PBEF overexpression; p=0.02
Experimental: Western Blot and Immunoprecipitation Analysis. Protein expression was assessed by Western blot analysis with chemiluminescence detection, as previously described (Rocnik, 2002). PBEF was detected using a rabbit polyclonal anti-human PBEF/Pre-B-cell colony enhancing factor antibody (Bethyl Laboratories, Montgomery, Tex.). SIRT1 was detected using a rabbit polyclonal anti-SIRT1 antibody (Abcam, Cambridge, Mass.) and p53 and α-tubulin were detected with monoclonal antibodies (CO-1, Santa Cruz, Calif. and Clone B-5-1-1, Sigma, Oakville, ON, respectively). Cytoplasmic p53 was similarly assessed following cell fractionation (NucBuster, Novagen Minneapolis, Minn.). Identification of p53 that underwent NAD^+-dependent removal of an acetyl group on residue K382 was determined by pretreating SMCs for 2 h with 5 μM trichostatin A (TSA), immunoprecipitating p53 from the cell lysate with a goat polyclonal antibody (R&D Systems, Minneapolis, Minn.), and immunoblotting using a rabbit polyclonal anti-acetylated p53 (K382) antibody (American Proteomics, Carlsbad, Calif.) and HRP-labelled donkey anti-rabbit IgG antibody (Amersham, Piscataway, N.J.).
Western Blot Analysis. Protein expression was assessed by Western blot analysis of confluent cultured SMCs, as previously described (Rocnik et al., 2002). […] Signal was detected by chemiluminescence (Pierce, Rockford, Ill., USA).

Substance: PBEF: 52-55 kD protein, rate-limiting enzyme for NAD+ biosynthesis from nicotinamide; tested by retroviral cDNA overexpression in cells
- proportion of microvessels invested by one or more human SMC's [1]: 17.8±2.5%
- additional population doublings beyond vector-infected SMCs [2]: 2.1±0.3 population doublings
- prolongation of lifespan ([2]; p=0.01): 34±4%
- additional population doublings (HITC6 SMCs; HITC6 SMCs overexpressing Nampt): 6.3±0.3 population doublings
- extension of lifespan (HITC6 SMCs; HITC6 SMCs overexpressing Nampt, p=0.003): 71±7%
- additional population doublings conferred by Nampt (HITC6 SMCs; double-transduction experiment, Nampt without SIRT1 H363Y): 5.4±0.5 population doublings
- abundance of SIRT1 protein (SIRT1): 1.3±0.3 fold
